Data from patent publication US20080009418A1, “Selective Inhibitors” (Alchemia LTD., priority 2004, published 2008).

What was measured:
Human opioid (ORL1) = biological target: T1, Human opioid (ORL1) (Homo sapiens, UniProt P41146); assay: Radioligand binding, human opioid ORL1 membranes, FlashPlate, [125I]-Nociceptin; conditions: compound at 10 μM, [125I]-Nociceptin
T1 construct: purchased Perkin Elmer Biosignal
Procedure, shortened: (§1)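 Cloned human receptor membranes were coated onto FlashPlate wells and incubated with radioligand and compound (added from a 0.5 mM DMSO daughter plate) for 1 hour at room temperature in the dark. Scintillation counting gave percent inhibition, with DMSO defining total and reference ligand defining non-specific binding.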

Human κ-Opioid (KOP) = biological target: T2, Human κ-Opioid (KOP) (Homo sapiens, UniProt P41145); assay: Radioligand binding, human κ-opioid (KOP) membranes, filtration, [3H]-Diprenorphine; conditions: compound at 10 μM, [3H]-Diprenorphine
T2 construct: purchased Perkin Elmer Biosignal
Procedure, shortened: (§2)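 Filtration binding on cloned human receptor membranes (1 Unit/well), [125I]-Substance P for NK1 and [3H]-Diprenorphine for KOP, 1 h at room temperature. Filters PEI-presoaked, washed with cold 50 mM Tris-HCl pH 7.4, counted by scintillation; percent inhibition calculated, reference ligand defining non-specific binding.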

Mouse urotensin (mUR2) = biological target: T3, Mouse urotensin (mUR2) (Mus musculus, UniProt Q8VIH9); assay: Radioligand binding, mouse urotensin mUR2 membranes, FlashPlate, [125I]-Urotensin II; conditions: compound at 10 μM, [125I]-Urotensin II
T3 construct: purchased Perkin Elmer Biosignal
T3 sequence (Q8VIH9 1-385): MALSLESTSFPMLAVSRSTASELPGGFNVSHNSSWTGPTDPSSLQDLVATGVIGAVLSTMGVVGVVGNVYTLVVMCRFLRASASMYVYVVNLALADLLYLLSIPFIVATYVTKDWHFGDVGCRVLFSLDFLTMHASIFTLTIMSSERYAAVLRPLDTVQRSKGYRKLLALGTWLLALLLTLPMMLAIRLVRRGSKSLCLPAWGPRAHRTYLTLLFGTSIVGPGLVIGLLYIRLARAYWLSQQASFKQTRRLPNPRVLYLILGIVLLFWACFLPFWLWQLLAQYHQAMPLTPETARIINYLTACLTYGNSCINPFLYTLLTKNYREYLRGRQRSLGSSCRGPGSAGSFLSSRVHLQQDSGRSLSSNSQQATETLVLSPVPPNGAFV
Procedure, shortened: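 Cloned mouse urotensin (mUR2) receptor membranes from Perkin Elmer Biosignal were immobilized in FlashPlate microplates using a proprietary coating. Each well got 19.5 μl buffer, then 0.5 μl of DMSO, reference ligand, or compound. Adding 5 μl of [125I]-Urotensin II, diluted to 5× final concentration in binding buffer, started binding. Plates were sealed with TopSeal-A and incubated 1 hour at room temperature in the dark. Wells were counted for 30 seconds each on a TopCount after a 60-second delay, and percentage inhibition was calculated.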

Human μ-opioid (MOP) = biological target: T4, Human μ-opioid (MOP) (Homo sapiens, UniProt P35372); assay: Radioligand binding, human μ-opioid (MOP) membranes, FlashPlate, [3H]-Naloxone; conditions: compound at 10 μM, [3H]-Naloxone
T4 construct: purchased Perkin Elmer Biosignal
Procedure, shortened: as §1

Human neurokinin (NK1) = biological target: T5, Human neurokinin (NK1) (Homo sapiens, UniProt P25103); assay: Radioligand binding, human neurokinin NK1 membranes, filtration, [125I]-Substance P; conditions: compound at 10 μM, [125I]-Substance P
T5 construct: purchased Perkin Elmer Biosignal
Procedure, shortened: as §2

Human Melanocortin (MC3) = biological target: T6, Human Melanocortin (MC3) (Homo sapiens, UniProt P41968); assay: Radioligand binding, human melanocortin MC3 membranes, FlashPlate, [125I]-NDP-αMSH; conditions: compound at 10 μM, [125I]-NDP-αMSH
T6 construct: purchased Perkin Elmer Biosignal
Procedure, shortened: as §1

[1] = biological target: T7, Human melanin-concentrating hormone (MCH1) (Homo sapiens, UniProt Q99705); assay: Radioligand binding, human melanin-concentrating hormone MCH1 membranes, FlashPlate, [125I]-S36057; conditions: compound at 10 μM
T7 construct: purchased Perkin Elmer Biosignal
Procedure, shortened: as §1

Human δ-opioid (DOP) = biological target: T8, Human δ-opioid (DOP) (Homo sapiens, UniProt P41143); assay: Radioligand binding, human δ-opioid (DOP) membranes, FlashPlate, [3H]-Bremazocine; conditions: compound at 10 μM, [3H]-Bremazocine
T8 construct: purchased Perkin Elmer Biosignal
Procedure, shortened: as §1

Human Melanocortin (MC4) = biological target: T9, Human Melanocortin (MC4) (Homo sapiens, UniProt P32245); assay: Radioligand binding, human melanocortin MC4 membranes, FlashPlate, [125I]-NDP-αMSH; conditions: compound at 10 μM, [125I]-NDP-αMSH
T9 construct: purchased Perkin Elmer Biosignal
Procedure, shortened: as §1

[2] = biological target: T10, Human neuropeptide Y (NPY-Y1) (Homo sapiens, UniProt P25929); assay: Radioligand binding, human neuropeptide Y NPY-Y1 membranes, FlashPlate, [125I]-PYY; conditions: compound at 10 μM, [125I]-PYY
T10 construct: purchased Perkin Elmer Biosignal
T10 sequence (P25929 1-384): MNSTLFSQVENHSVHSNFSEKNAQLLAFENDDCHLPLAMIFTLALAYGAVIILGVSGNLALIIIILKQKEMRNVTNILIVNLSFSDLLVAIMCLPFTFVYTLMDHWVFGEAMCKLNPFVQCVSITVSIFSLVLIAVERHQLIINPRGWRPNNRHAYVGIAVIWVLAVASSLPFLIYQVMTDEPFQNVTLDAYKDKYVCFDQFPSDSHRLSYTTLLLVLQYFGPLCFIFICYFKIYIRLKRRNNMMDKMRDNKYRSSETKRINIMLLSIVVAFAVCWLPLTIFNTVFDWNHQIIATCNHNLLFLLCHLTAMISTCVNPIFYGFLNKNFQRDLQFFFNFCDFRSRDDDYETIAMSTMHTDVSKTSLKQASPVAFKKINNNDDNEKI
Procedure, shortened: as §1

Human melanocortin (MC5) = biological target: T11, Human melanocortin (MC5) (Homo sapiens, UniProt P33032); assay: Radioligand binding, human melanocortin MC5 membranes, FlashPlate, [125I]-NDP-αMSH; conditions: compound at 10 μM, [125I]-NDP-αMSH
T11 construct: purchased Perkin Elmer Biosignal
Procedure, shortened: as §1

[3] = [125I]-S36057, human MCH1 membranes

T9 sequence (P32245 whole entry): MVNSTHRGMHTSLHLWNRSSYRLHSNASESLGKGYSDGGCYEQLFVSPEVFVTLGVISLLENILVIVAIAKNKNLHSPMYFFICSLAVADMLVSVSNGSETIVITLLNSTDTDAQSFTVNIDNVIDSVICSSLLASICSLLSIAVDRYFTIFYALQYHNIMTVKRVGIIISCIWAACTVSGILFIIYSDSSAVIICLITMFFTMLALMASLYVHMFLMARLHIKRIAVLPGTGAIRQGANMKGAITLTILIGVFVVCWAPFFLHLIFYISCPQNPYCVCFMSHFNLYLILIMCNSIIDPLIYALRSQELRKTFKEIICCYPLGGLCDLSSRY
T8 sequence (P41143 whole entry): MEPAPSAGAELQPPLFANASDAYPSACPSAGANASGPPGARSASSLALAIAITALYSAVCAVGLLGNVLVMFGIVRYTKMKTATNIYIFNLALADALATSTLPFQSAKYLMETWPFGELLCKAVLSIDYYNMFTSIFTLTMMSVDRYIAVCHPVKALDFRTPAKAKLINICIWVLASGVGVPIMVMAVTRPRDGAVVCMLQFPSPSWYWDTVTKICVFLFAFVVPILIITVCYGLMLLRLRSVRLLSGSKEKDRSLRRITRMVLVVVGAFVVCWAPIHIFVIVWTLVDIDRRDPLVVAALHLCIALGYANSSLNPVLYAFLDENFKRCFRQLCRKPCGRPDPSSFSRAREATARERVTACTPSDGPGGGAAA
T11 sequence (P33032 whole entry): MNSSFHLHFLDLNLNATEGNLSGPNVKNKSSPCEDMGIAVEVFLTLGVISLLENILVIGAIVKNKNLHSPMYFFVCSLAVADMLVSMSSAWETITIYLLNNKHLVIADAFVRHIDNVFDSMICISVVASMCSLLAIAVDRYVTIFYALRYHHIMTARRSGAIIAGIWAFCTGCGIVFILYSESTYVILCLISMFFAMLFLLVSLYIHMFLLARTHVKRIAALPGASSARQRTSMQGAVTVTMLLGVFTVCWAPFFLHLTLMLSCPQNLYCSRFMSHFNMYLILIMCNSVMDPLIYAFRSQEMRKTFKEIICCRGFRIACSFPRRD
T4 sequence (P35372 whole entry): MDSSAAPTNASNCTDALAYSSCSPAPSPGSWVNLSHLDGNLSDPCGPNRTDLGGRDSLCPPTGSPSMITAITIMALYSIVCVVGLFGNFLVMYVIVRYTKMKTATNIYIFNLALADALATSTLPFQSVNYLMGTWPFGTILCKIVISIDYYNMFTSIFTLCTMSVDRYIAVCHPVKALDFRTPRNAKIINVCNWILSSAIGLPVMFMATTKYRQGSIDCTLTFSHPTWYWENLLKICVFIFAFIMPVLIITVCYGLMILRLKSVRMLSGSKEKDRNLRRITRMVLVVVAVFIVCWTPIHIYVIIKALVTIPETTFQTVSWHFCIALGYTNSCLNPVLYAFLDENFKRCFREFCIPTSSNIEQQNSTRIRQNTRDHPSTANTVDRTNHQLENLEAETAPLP
T5 sequence (P25103 whole entry): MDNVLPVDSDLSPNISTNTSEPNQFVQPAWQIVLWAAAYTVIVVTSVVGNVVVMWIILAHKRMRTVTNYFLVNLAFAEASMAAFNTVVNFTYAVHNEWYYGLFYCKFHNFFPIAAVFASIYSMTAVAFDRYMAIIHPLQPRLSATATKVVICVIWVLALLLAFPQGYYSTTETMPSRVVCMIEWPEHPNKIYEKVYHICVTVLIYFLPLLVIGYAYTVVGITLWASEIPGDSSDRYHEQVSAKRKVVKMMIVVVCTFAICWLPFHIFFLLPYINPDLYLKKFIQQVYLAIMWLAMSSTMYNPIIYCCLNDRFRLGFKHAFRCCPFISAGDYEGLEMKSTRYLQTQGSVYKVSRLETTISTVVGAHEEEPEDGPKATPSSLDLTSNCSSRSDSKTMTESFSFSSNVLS
T6 sequence (P41968 whole entry): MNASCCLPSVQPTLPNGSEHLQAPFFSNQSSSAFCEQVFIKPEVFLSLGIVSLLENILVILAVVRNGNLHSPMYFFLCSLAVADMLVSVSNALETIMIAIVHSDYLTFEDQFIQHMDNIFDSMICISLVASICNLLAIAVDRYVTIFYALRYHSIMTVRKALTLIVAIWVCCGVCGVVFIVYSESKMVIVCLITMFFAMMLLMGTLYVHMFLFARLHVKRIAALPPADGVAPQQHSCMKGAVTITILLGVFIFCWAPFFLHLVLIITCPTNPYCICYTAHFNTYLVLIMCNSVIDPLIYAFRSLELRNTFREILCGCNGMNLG
T2 sequence (P41145 whole entry): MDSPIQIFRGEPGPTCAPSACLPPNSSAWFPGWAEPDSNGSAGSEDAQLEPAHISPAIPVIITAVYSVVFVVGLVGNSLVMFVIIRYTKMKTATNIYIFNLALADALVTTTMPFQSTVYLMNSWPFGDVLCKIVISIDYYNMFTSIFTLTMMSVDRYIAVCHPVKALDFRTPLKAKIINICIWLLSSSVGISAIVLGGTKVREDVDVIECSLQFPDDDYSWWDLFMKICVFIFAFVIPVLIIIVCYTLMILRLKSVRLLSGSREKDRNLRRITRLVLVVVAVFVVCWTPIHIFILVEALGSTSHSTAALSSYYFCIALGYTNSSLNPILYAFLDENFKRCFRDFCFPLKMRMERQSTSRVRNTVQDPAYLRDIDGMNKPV
T1 sequence (P41146 whole entry): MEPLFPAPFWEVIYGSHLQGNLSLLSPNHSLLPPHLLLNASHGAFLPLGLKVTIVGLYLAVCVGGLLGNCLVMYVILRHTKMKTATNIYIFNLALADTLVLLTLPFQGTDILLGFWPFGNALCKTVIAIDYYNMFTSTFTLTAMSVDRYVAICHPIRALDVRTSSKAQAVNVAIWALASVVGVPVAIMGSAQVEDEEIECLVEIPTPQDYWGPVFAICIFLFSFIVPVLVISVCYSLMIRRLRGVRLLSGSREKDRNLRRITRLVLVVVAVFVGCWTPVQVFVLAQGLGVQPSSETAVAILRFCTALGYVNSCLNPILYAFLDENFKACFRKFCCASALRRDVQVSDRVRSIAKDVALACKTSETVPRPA
T7 sequence (Q99705 whole entry): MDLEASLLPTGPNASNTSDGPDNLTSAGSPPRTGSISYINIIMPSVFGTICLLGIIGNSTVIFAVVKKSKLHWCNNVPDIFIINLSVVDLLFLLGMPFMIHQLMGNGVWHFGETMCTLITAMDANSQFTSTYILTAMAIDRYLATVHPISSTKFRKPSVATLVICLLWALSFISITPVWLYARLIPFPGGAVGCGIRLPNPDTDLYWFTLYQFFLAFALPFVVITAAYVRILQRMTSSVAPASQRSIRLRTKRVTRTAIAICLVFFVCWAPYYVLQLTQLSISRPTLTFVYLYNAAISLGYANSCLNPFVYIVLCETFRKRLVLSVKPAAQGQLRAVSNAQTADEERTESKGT

SMILES | A2: inhibition of radioligand binding (Human κ-Opioid (KOP); human KOP membranes) | A11: inhibition of radioligand binding (Mouse urotensin (mUR2); mouse mUR2 membranes) | A7: inhibition of radioligand binding (Human μ-opioid (MOP); human MOP membranes) | A8: inhibition of radioligand binding (Human neurokinin (NK1); human NK1 membranes) | A6: inhibition of radioligand binding [1, 3] | A1: inhibition of radioligand binding (Human δ-opioid (DOP); human DOP membranes) | A9: inhibition of radioligand binding ([2]; human NPY-Y1 membranes) | A5: inhibition of radioligand binding (Human melanocortin (MC5); human MC5 membranes) | A10: inhibition of radioligand binding (Human opioid (ORL1); human ORL1 membranes) | A3: inhibition of radioligand binding (Human Melanocortin (MC3); human MC3 membranes) | A4: inhibition of radioligand binding (Human Melanocortin (MC4); human MC4 membranes) | A10: inhibition of radioligand binding (Human opioid (ORL1); FlashPlate) | A2: inhibition of radioligand binding (Human κ-Opioid (KOP); filtration) | A11: inhibition of radioligand binding (Mouse urotensin (mUR2); FlashPlate) | A7: inhibition of radioligand binding (Human μ-opioid (MOP); FlashPlate) | A8: inhibition of radioligand binding (Human neurokinin (NK1); filtration) | A3: inhibition of radioligand binding (Human Melanocortin (MC3); FlashPlate) | A6: inhibition of radioligand binding ([1]; [125I]-S36057, FlashPlate) | A1: inhibition of radioligand binding (Human δ-opioid (DOP); FlashPlate) | A4: inhibition of radioligand binding (Human Melanocortin (MC4); FlashPlate) | further results
NCCCC(=O)NC1C(OCc2ccc3ccccc3c2)OC(COCc2ccc(Cl)cc2)C(O)C1OCc1ccccc1 (stereo not shown) [compound 398] | − (“−” indicates less than 50% inhibition at 10 μM) | − (“−” indicates less than 50% inhibition at 10 μM) | − (“−” indicates less than 50% inhibition at 10 μM) | + (“+” indicates greater than 50% inhibition at 10 μM) | − (“−” indicates less than 50% inhibition at 10 μM) | − (“−” indicates less than 50% inhibition at 10 μM) | − (“−” indicates less than 50% inhibition at 10 μM) | + (“+” indicates greater than 50% inhibition at 10 μM) | – | – | – | – | – | – | – | – | – | – | – | – | A10: inhibition of radioligand binding (Human opioid (ORL1); human ORL1 membranes, 10 µM): − (“−” indicates less than 50% inhibition at 10 μM); A3: inhibition of radioligand binding (Human Melanocortin (MC3); human MC3 membranes, 10 µM): + (“+” indicates greater than 50% inhibition at 10 μM); A4: inhibition of radioligand binding (Human Melanocortin (MC4); human MC4 membranes, 10 µM): + (“+” indicates greater than 50% inhibition at 10 μM)
NCCC(=O)N[C@H]1C(OCc2ccc3ccccc3c2)O[C@H](COCc2ccc3ccccc3c2)[C@@H](O)[C@@H]1OCc1ccc2ccccc2c1 (stereo partly shown) [compound 443] | − (“−” indicates less than 50% inhibition at 10 μM) | − (“−” indicates less than 50% inhibition at 10 μM) | − (“−” indicates less than 50% inhibition at 10 μM) | + (“+” indicates greater than 50% inhibition at 10 μM) | + (“+” indicates greater than 50% inhibition at 10 μM) | − (“−” indicates less than 50% inhibition at 10 μM) | − (“−” indicates less than 50% inhibition at 10 μM) | + (“+” indicates greater than 50% inhibition at 10 μM) | + (“+” indicates greater than 50% inhibition at 10 μM) | + (“+” indicates greater than 50% inhibition at 10 μM) | + (“+” indicates greater than 50% inhibition at 10 μM) | – | – | – | – | – | – | – | – | – | –
N=C(N)NCCC(=O)NC1C(OCc2ccc(-c3ccccc3)cc2)OC(COCc2ccccc2)C(O)C1OCc1ccc(-c2ccccc2)cc1 (stereo not shown) [compound 415] | − (“−” indicates less than 50% inhibition at 10 μM) | − (“−” indicates less than 50% inhibition at 10 μM) | − (“−” indicates less than 50% inhibition at 10 μM) | + (“+” indicates greater than 50% inhibition at 10 μM) | + (“+” indicates greater than 50% inhibition at 10 μM) | − (“−” indicates less than 50% inhibition at 10 μM) | − (“−” indicates less than 50% inhibition at 10 μM) | + (“+” indicates greater than 50% inhibition at 10 μM) | − (“−” indicates less than 50% inhibition at 10 μM) | + (“+” indicates greater than 50% inhibition at 10 μM) | + (“+” indicates greater than 50% inhibition at 10 μM) | – | – | – | – | – | – | – | – | – | –
COCC1OC(OCCc2ccccc2)C(NC(=O)CNC(=N)N)C(OCc2ccccc2)C1O (stereo not shown) [compound 215] | – | – | – | – | – | – | – | – | – | – | – | − (“−” indicates less than 50% inhibition at 10 μM) | − (“−” indicates less than 50% inhibition at 10 μM) | − (“−” indicates less than 50% inhibition at 10 μM) | − (“−” indicates less than 50% inhibition at 10 μM) | + (“+” indicates greater than 50% inhibition at 10 μM) | − (“−” indicates less than 50% inhibition at 10 μM) | − (“−” indicates less than 50% inhibition at 10 μM) | − (“−” indicates less than 50% inhibition at 10 μM) | − (“−” indicates less than 50% inhibition at 10 μM) | A9: inhibition of radioligand binding ([2]; FlashPlate): − (“−” indicates less than 50% inhibition at 10 μM); A5: inhibition of radioligand binding (Human melanocortin (MC5); FlashPlate): + (“+” indicates greater than 50% inhibition at 10 μM)
CSC1OC(COCc2ccc(-c3ccccc3)cc2)C(O)C(OCc2ccccc2)C1NC(=O)CCCN (stereo not shown) [compound 258] | – | – | – | – | – | – | – | – | – | – | – | − (“−” indicates less than 50% inhibition at 10 μM) | − (“−” indicates less than 50% inhibition at 10 μM) | − (“−” indicates less than 50% inhibition at 10 μM) | − (“−” indicates less than 50% inhibition at 10 μM) | + (“+” indicates greater than 50% inhibition at 10 μM) | − (“−” indicates less than 50% inhibition at 10 μM) | − (“−” indicates less than 50% inhibition at 10 μM) | − (“−” indicates less than 50% inhibition at 10 μM) | − (“−” indicates less than 50% inhibition at 10 μM) | A9: inhibition of radioligand binding ([2]; FlashPlate): − (“−” indicates less than 50% inhibition at 10 μM); A5: inhibition of radioligand binding (Human melanocortin (MC5); FlashPlate): − (“−” indicates less than 50% inhibition at 10 μM)
